Tests used:
DBA/2J mice = assay: IOP lowering after topical application in DBA/2J mice; type: in vivo, mouse; conditions: DBA/2J mouse at 8 months, IOP ~35 mm of Hg, topical once daily up to 7 days
Procedure: The right eye was treated with vehicle alone and left eye treated with lipid. Control had both eyes treated with vehicle. A. In DBA/2J mice the indicated lipid in vehicle or control (vehicle only) were administered one daily at around 7.5 months of age in mice which were noted to have a IOP≥18 mm of Hg (20% increase from an average baseline of 15 mm of Hg was employed as treatment point). The average IOP recordings are shown for indicated lipids. B. A 10 picomole each of six PC (13:0/13:0; PE (18:0/18:0), Lyso-PS 18:0, PS 18:1, Sphinganine and C17S1P) were combined and applied as a topical dose once daily for up to 7 days on DBA/2J mouse eyes in 5% DMSO (vehicle). […] Transgenic myocillin mice [Tg-MYOC(Y437H)] subjected to a topical dose of indicated lipids as noted above (FIG. 5C). The IOP lowering compared to control was noted on day 4 and 6 as shown.
Intraocular pressure lowering in mouse models. The endogenous lipids lowered IOP in a DBA/2J mouse model of glaucoma (FIG. 5A). DBA/2J is the only known mouse animal where elevation of IOP occur spontaneously. Although this mouse also suffers from pigmentary dispersion, however, elevation of IOP appears not to correlate with […]. The lipids as indicated were applied as a topical dose (10 pmole in 5% DMSO as vehicle). The 5% DMSO only vehicle served as a control (FIG. 5A). […] A 10 picomole each of six PC (13:0/13:0; PE (18:0/18:0), Lyso-PS 18:0, PS 18:1, Sphinganine, and C17S1P) were combined and applied as a topical dose once daily for up to 7 days on DBA/2J mouse eyes in 5% DMSO (vehicle) (in other words, 10 picomoles of each PC was included). […] In addition to the DBA/2J model described here, these endogenous lipids lowered IOP in cochlin and connective tissue growth factor (CTGF) over-expression models. […] Thus the endogenous lipids assessed here lowered IOP in vastly different DBA/2J and MYOC(Y437H) mouse models as well as in cochlin and CTGF overexpression models covering a broad swath of four rodent glaucoma models that encompass induced as well as spontaneous IOP elevation.
Topical application of lipids and measurement of IOP: The lipids were topically applied as 1 μl drops with 10 pmole lipids. Pressure was measured with a tonolab (Colonial
Medical Supplies, N.H.) or with an assembled cannulation device, used in our laboratory. An initial assessment had utilized 10% DMSO as vehicle. However, all data reported here utilized 5% DMSO.

[1] = test system: normotensive cynomolgus monkeys; assay: IOP and slit lamp examination in normotensive cynomolgus monkeys after topical lipid; type: in vivo
Procedure: Lipids were topically administered in 1 μl volume around ˜1 pm in the afternoon. The right eye was treated with vehicle alone, and the left eye was treated with lipid. The cynomolgus monkeys (n=4) were treated with […] lipid (except C17S1P which was 50 nM) for 5 days. Monkeys were subjected to slit lamp examination and IOP measurement prior to and after treatment. The IOP measured 3-6 hours post-treatment on the fifth day of treatment is depicted as solid bars. The hollow bars are control (vehicle only (5% DMSO)).
Experimental design: The IOP-reducing activity of six lipids was tested in the eyes of cynomolgus monkeys (n=4 animals for each lipid). Baseline slit lamp biomicroscopic examination (SLE) and IOP for each group of animals was measured prior to topical application of lipids. The SLE and IOP were then measured at 3-6 hours posttreatment. One eye of each monkey received topical application with the lipid suspended in vehicle (1% dimethylsulfoxide (DMSO)), and the contralateral eye was treated with vehicle only. All topical applications contained 10 picomole of lipid (except C17S1P, which was 50 nM). […] The IOP was measured using a minified Goldmann applanation tonometer.

SMILES	lowering of IOP after elevation, short term application (FIG. 5B) (DBA/2J mice)	IOP reduction ([1]; topical 10 picomole (C17S1P 50 nM), 5 days, IOP 3-6 hours post-treatment)	adverse side effects or toxicity ([1]; topical, slit lamp examination)
CCN[C@H]1C[C@H](C)S(=O)(=O)c2sc(S(N)(=O)=O)cc21 [Dorzolamide, reference compound]	same level of IOP reduction as Timolol		
CCCCCCCCCCCCCCCCCC(=O)OC[C@@H](O)COP(=O)(O)OC[C@H](N)C(=O)O [PS18:0 Lyso-PS]		reduced IOP significantly	without additional adverse side effects or toxicity

Reference: patent US10046001B2, “Compositions and methods for reducing intraocular pressure” (UNIVERSITY OF MIAMI, priority 2013, dated 2018)
